Measurements published in US20180203025A1, “HDL THERAPY MARKERS” (Cerenis Therapeutics Holding SA, priority 2014, published 2018).

What was measured:
J774 macrophages = assay: Cytotoxicity in J774 efflux study; type: cell-based, mouse; settings: Study N; 30 mM; 6 hours
Protocol: J774 were seeded on 24 well plates (60,000 cells/well) and loaded with ^3H-cholesterol oxidized-LDL in DMEM 2.5% FCS. After a 24 hour equilibration (DMEM), β-cyclodextrin (0.03, 0.1, 0.3, 1, 3, 10 and 30 mM) was added for 6 hours. The percentage of efflux, assayed using the protocol of Section 8.3.6, is determined as: Medium DPM/(Medium DPM+Cell DPM)*100.

[1] = test system: TAV and PAV of the target coronary artery; assay: CHI SQUARE IVUS post-hoc analysis by SAHMRI (second approach); type: in vivo, human
Protocol: A post-hoc analysis of the IVUS data was performed by the South Australian Health & Medical Research Institute (SAHMRI).
In this case there were similar frame-counts between baseline and follow-up. The number of frames selected were normally distributed (FIG. 3).

CHI SQUARE tolerability = type: in vivo, human; settings: 3, 6, and 12 mg/kg
Text: 504 subjects presenting with acute chest pain or other angina equivalent symptoms, indicative of a diagnosis of ST segment elevation myocardial infarction, non-ST elevation myocardial infarction or unstable angina were enrolled. To be eligible, subjects must have angiographic evidence of coronary artery disease as defined by at least one lesion in any of the three major native coronary arteries that has >20% reduction in lumen diameter by angiographic visual estimation or prior history of percutaneous coronary intervention (“PCI”). The target vessel for PCI was not the target coronary artery for research IVUS, and any vessel with previous PCI could not be used as the target coronary artery.

[2] = test system: ABCA1 protein in J774 macrophages; assay: ABCA1 protein level in J774 macrophages (SDS PAGE, anti-ABCA1); type: cell-based, mouse; settings: Study H; 250 μg/mL, 6 hours
[3] = test system: ligatured carotid from apoE−/− mice; assay: Cholesterol content of ligatured left carotids, apoE−/− mice on high fat diet; type: in vivo, mouse; settings: 8 injections
Protocol: The formulation was injected in the retro-orbital vein (50 μL/mouse) of mice anaesthetized with isoflurane, once every 2 days for 8 injections. The dose administered was based on the mean of mice bodyweight in each cage. The compounds were injected at 10 AM every day. For blood sampling, mice fasted overnight were sampled once at the indicated dose: (1) at predose (at 9 AM) by retro-orbital withdrawal: 24 hours before the first injection/day of surgery; (2) at postdose (at 9 AM) by retro-orbital withdrawal: 24 hours after the last injection; and (3) at t=0 (9 AM) and the indicated time points after the 5th injection by caudal withdrawal. Immediately after collection, blood samples were kept at ca. +4° C. to avoid alteration of the blood sample. Blood specimens were centrifuged (800×g for 10 minutes at +4° C.) and plasma was saved for future analysis.
This study examined the effect of CER-001 administration on plaque progression in ligatured carotid from apoE^−/− mice fed with a high fat diet. For each group of mice, the cholesterol content of the carotid was tested after lipid extraction and HPLC analysis. The ligatured carotids were collected the day of sacrifice and stored at −80° C. The lipids were extracted with an organic solution and the cholesterol concentration was determined by HPLC.
Ligatured carotids were lipid extracted according to the method of Section 9.2.9. The surgical straps were removed from the carotid (fresh weight) and the tissue was introduced in a glass tube. To this was added 1.8 mL of CHCl3/MeOH (2:1) and mixed overnight at 4° C. The carotid was then removed, dried and weighed and the organic solution (CHCl3/MeOH) was split in two glass tubes in equal volumes. For unesterified cholesterol (UC), 100 μL of β-sitosterol (internal standard) was added and the solution was dried. To this was added 200 μL EtOH for solubilisation of the sample and the sample was analyzed UC by HPLC. […] To this was added 200 μL EtOH for solubilisation of the sample and analysed TC by HPLC. The cholesterol concentration was determined by HPLC according to the method of Section 9.2.7. […]

[4] = Plasma human ApoA-I by ELISA in apoE−/− mice; type: in vivo, mouse
Protocol: This study examined the kinetics of the CER-001 infusion by determining the concentration of human ApoA-I in the plasma after infusion of CER-001. The ApoA-I concentration in plasma was determined by ELISA (Assay Pro EA5201-1) following manufacturer instructions.

[5] = test system: carotid artery and aorta vessel wall; assay: SAMBA trial: mean vessel wall thickness by 3Tesla MRI; type: in vivo, human
Protocol: The patients were initially treated in an intense “induction phase,” receiving 9 doses of CER-001 at a dose of 8 mg/kg over 4 weeks. After this induction phase, the study subjects were re-evaluated with lipoprotein profiles and an MRI scan. Subsequently, the study subjects continued to be treated once every two weeks in a “maintenance phase” for 6 months' total therapy. At that point the lipoprotein profiles and MRI scans were repeated.
FIG. 70 and FIG. 71 show the mean carotic and aortic vessel wall thickness, respectively, on a patient-by-patient basis after one month of treatment. Mean vessel wall thickness of the carotid artery decreased by a mean of −6.4% after one month of induction therapy, and mean vessel wall thickness of the aorta decreased by a mean of −4.6% after one month of induction therapy. The homozygous ApoA-I deficiency patient experienced a −17% regression of carotid mean vessel wall thickness. […] Mean vessel wall thickness was determined by 3Tesla MRI.

[6] = baseline PAV equal to or greater than 30, mITT, 3 mg/kg (n = 58)
[7] = baseline PAV equal to or greater than 30, mITT, 6 mg/kg (n = 78)
[8] = baseline PAV equal to or greater than 30, mITT, 12 mg/kg (n = 66)
[9] = mean of subjects, one month of induction therapy, 8 mg/kg

Compound: OC[C@H]1O[C@@H]2O[C@H]3[C@H](O)[C@@H](O)[C@@H](O[C@H]4[C@H](O)[C@@H](O)[C@@H](O[C@H]5[C@H](O)[C@@H](O)[C@@H](O[C@H]6[C@H](O)[C@@H](O)[C@@H](O[C@H]7[C@H](O)[C@@H](O)[C@@H](O[C@H]8[C@H](O)[C@@H](O)[C@@H](O[C@H]1[C@H](O)[C@H]2O)O[C@@H]8CO)O[C@@H]7CO)O[C@@H]6CO)O[C@@H]5CO)O[C@@H]4CO)O[C@@H]3CO [β-cyclodextrin, reference compound]
- cytotoxicity (J774 macrophages): cytotoxic, killing half of the cell population

Compound: CER-001: engineered recombinant human apolipoprotein A-I HDL with sphingomyelin and DPPG; protein-to-phospholipid ratio 1:2.7, 97% Sph and 3% DPPG
- change in TAV and PAV versus placebo ([1]; baseline PAV equal to or greater than 30, mITT, 3 mg/kg): obtained statistical significance versus placebo
- PAV LS mean change (ANCOVA) [1, 6]: −0.963
- TAV LS mean change (ANCOVA) [1, 6]: −6.258
- PAV LS mean change (ANCOVA) [1, 7]: −0.619
- TAV LS mean change (ANCOVA) [1, 7]: −3.429
- PAV LS mean change (ANCOVA) [1, 8]: +0.177
- TAV LS mean change (ANCOVA) [1, 8]: −2.726
- shape of dose-effect curve ([1]; humans, 3, 6, 12 mg/kg): inverted U-shaped dose-effect curve
- reduction in PAV and TAV versus baseline ([1]; mITT population): statistically significant and comparable magnitude of reduction in PAV and TAV versus baseline
- TAV and PAV versus placebo ([1]; mPP population, 3 mg/kg): did achieve nominal statistical significance versus placebo
- tolerability (CHI SQUARE tolerability): well-tolerated overall
- toxicities in laboratory parameters (CHI SQUARE tolerability): no apparent dose-related toxicities in laboratory parameters
- ABCA1 protein level [2]: significant decrease of ABCA1 protein level
- decrease in total cholesterol contents in ligatured carotids ([3]; 2, 5 and 10 mg/kg): 50%
- decrease in unesterified cholesterol in ligatured carotids ([3]; 2, 5 and 10 mg/kg): 25%
- inhibition of plaque progression ([3]; 20 and 50 mg/kg): around 10%
- human ApoA-I plasma concentration ([4]; 2-50 mg/kg): dose-dependent increase
- human plasma ApoA-I relative to expected doses ([4]; mouse, in vivo): expected doses of ApoA-I in plasma were retrieved
- benefit on vessel wall thickness ([5]; after an additional 5 months of maintenance therapy): persistent and cumulative benefit
- regression of carotid mean vessel wall thickness ([5]; homozygous ApoA-I deficiency patient): −17%
- change of mean vessel wall thickness of the aorta [5, 9]: −4.6%
- change of mean vessel wall thickness of the carotid artery [5, 9]: −6.4%
